The subject of data set [1] is target gene SOD1. In words: Test Example 8: inhibitory activity on target gene SOD1 in adipose tissues in different parts of mice. The conditions noted are these: tail vein injection 5 mg/kg, D14; for Subcutaneous fat % Mean value of inhibition rate: abdominal subcutaneous fat. The format is in vivo, C57BL/6j mice. Here is the method: (§1) RNA extraction: the above tissue samples were taken out from the RNAlater, and smashed for 60 s in Tissuelyser type II full-automatic tissue homogenizer, and total RNAs of various tissue samples were extracted using the full-automatic nucleic acid extraction instrument and the nucleic acid extraction kit from Zhejiang Hanwei Science and Technology Co. Ltd. according to methods described in instructions.
(§2) Reverse transcription reaction: 1 μg of the extracted total RNAs of the tissue samples were taken, and configured into 20 μL of reverse transcription system according to a method described in kit instructions by using a reverse transcription kit (Reverse Transcription System, A3500) from Promega Corporation and selecting Oligo (dT)15 reverse transcription primers, and the reverse transcription reaction was completed. After the reaction was ended, 80 μL of RNase-Free water was added into the reverse transcription system to provide cDNA solution for Real-time PCR detection.
(§3) Real-time PCR detection: 20 μL of Real-time PCR reaction system per PCR detection well was configured according to a method described in kit instructions using SYBR™ Select Master Mix (Catalog number: 4472908) reagent from ABI company. Each detection system contained 5 μL of cDNA template obtained from the above reverse transcription reaction, 10 μL of SYBR™ Select Master Mix, 0.5 μL of 10 μM upstream primers, 0.5 μL of 10 μM downstream primers, and 4 μL of RNase-Free H2O. The configured reaction system was subjected to Real-time PCR amplification on ABI StepOnePlus PCR instrument by a three-step method, wherein an amplification procedure was pre-denaturation at 95° C. for 10 min, then denaturation at 95° C. for 30 s, annealing at 60° C. for 30 s, and extension at 72° C. for 30 s; and processes of denaturation, annealing, and extension were repeated for 40 cycles. Gene expression differences were calculated by the ΔΔCt method after completion of the procedure.
(§4) In the real-time fluorescence quantitative PCR method, relative quantitative calculation of remaining expression level and inhibition rate of gene mRNA of interest in various test groups was performed by the ΔΔCt method, and the calculation method is as follows:
The present test example evaluated, by an evaluation method for inhibitory activity on a target gene in mice, the inhibitory activity of siRNA sequence RZ899090 with the sense strand with the NM073 conjugation at Position 4, siRNA sequence RZ899091 with the sense strand with the NM074 conjugation at Position 4, siRNA sequence RZ899078 with the sense strand with the NM202 conjugation at Position 6 and siRNA reference sequence RZ899093 with the sense strand with the Uhd conjugation at Position 4, siRNA reference sequence RZ899076 with the sense strand with the NM200 conjugation at Position 4 on the target gene SOD1 in adipose tissues of interest in mice.
(§5) 6-8 Week-old C57BL/6j mice were randomly grouped by body weight, 5 per group, 6 groups in total. Mice in each group were dosed with the above siRNA conjugates by tail vein injection, with an administration dose of 5 mg/kg per mouse, and an administration volume of 150 μL. PBS control group was administered with the same volume of siRNA conjugate-free PBS solution. The day of administration was recorded as D0, and 5 mice in each group were sacrificed on D14 after administration. Paragonadal fat, abdominal subcutaneous fat, and brown fat on back were respectively taken. RNA extraction, reverse transcription, and real-time fluorescence quantitative detection were performed on various tissues according to the above method, and gene expression differences were calculated by the above ΔΔCt method.

Data set [2] relates to target gene SOD1. Kind of data set: Test Example 9: inhibitory activity of lipid conjugated siRNA sequences on SOD1 in mouse muscle tissues. Format: in vivo, C57BL/6j mice. The conditions noted are these: D14; for Diaphragm % Mean value of inhibition rate / Heart % Mean value of inhibition rate / Left quadriceps muscle % Mean value of inhibition rate: tail vein injection 5 mg/kg; for Left quadriceps muscle % Mean value of inhibition rate: left hind leg quadriceps muscle. As to the method:
as §1, §2, §3, §4
The present test example evaluated, by an evaluation method for inhibitory activity on a target gene in mice, the inhibitory activity of siRNA sequence RZ899090 with the sense strand with the NM073 conjugation at Position 4, siRNA sequence RZ899091 with the sense strand with the NM074 conjugation at Position 4, siRNA sequence RZ899078 with the sense strand with the NM202 conjugation at Position 6 and siRNA reference sequence RZ899093 with the sense strand with the Uhd conjugation at Position 4, siRNA reference sequence RZ899076 with the sense strand with the NM200 conjugation at Position 4 on the target gene SOD1 of interest in muscle tissues in different parts of mice.
as §5, with “Tissues such as left hind leg quadriceps muscle, diaphragm,” for “Paragonadal fat, abdominal subcutaneous fat,”, “heart tissues” for “brown fat on back”, “taken and stored in the RNAlater.” for “taken.”

As for “RZ899076: siRNA reference sequence with the sense strand with the NM200 (C22) conjugation at Position 4; SEQ ID NO: 18 / 24 (sense UUUNAAUCCUCACUCUAAA; antisense UUUAGAGUGAGGAUUAAAAUG; NM200 (C22) conjugate at sense position 4; modified_base 1..2 OTHER; 2'-methoxy and 5'-thiophosphate modified nucleotides; modified_base 3 OTHER; 2'-methoxy modified nucleotide; modified_base 4 OTHER; n is the synthetic nucleotide analog NM200 as described in the disclosure.; modified_base 5..6 OTHER; 2'-methoxy modified nucleotides; modified_base 7..10 OTHER; 2'-fluoro modified nucleotides; modified_base 11..19 OTHER; 2'-methoxy modified ; modified_base 1 OTHER; 2'-methoxy and 5'-thiovinylphosphonate modified nucleotide; modified_base 2 OTHER; 2'-fluoro and 5'-thiophosphate modified …) [reference compound]”, in the data set with target gene SOD1 [1], the “Subcutaneous fat % Mean value of inhibition rate” value is recorded as 76.03%, the “Brown fat on back % Mean value of inhibition rate” value is listed as 80.80% and the “Paragonadal fat % Mean value of inhibition rate” value turned out to be 56.52%. Further, in the data set with target gene SOD1 [2], the “Diaphragm % Mean value of inhibition rate” value came out at 74.58%, the “Heart % Mean value of inhibition rate” value turned out to be 51.69% and the “Left quadriceps muscle % Mean value of inhibition rate” value came to 60.97%.
Consider “RZ899078: siRNA sequence with the sense strand with the NM202 (C22) conjugation at Position 6; SEQ ID NO: 20 / 24 (sense UUUUANUCCUCACUCUAAA; antisense UUUAGAGUGAGGAUUAAAAUG; NM202 (C22) conjugate at sense position 6; modified_base 1..2 OTHER; 2'-methoxy and 5'-thiophosphate modified nucleotides; modified_base 3..5 OTHER; 2'-methoxy modified nucleotides; modified_base 6 OTHER; n is the synthetic nucleotide analog NM202 as described in the disclosure.; modified_base 7..10 OTHER; 2'-fluoro modified nucleotides; modified_base 11..19 OTHER; modified_base 1 OTHER; 2'-methoxy and 5'-thiovinylphosphonate modified nucleotide; modified_base 2 OTHER; 2'-fluoro and 5'-thiophosphate modified nucleotide; modified_base 6 OTHER;)”, for which, in the data set with target gene SOD1 [1], the “Subcutaneous fat % Mean value of inhibition rate” value worked out at 71.42%, the “Brown fat on back % Mean value of inhibition rate” value is recorded as 67.27% and the “Paragonadal fat % Mean value of inhibition rate” value amounted to 55.23%. In the data set on target gene SOD1 [2], the “Diaphragm % Mean value of inhibition rate” value stood at 47.67%, the “Heart % Mean value of inhibition rate” value was 68.69% and the “Left quadriceps muscle % Mean value of inhibition rate” value turned out to be 32.10%. In addition, in the data set with target gene SOD1 [2] (heart tissues, tail vein 5 mg/kg), the “inhibitory activity compared with the NM200 conjugated reference sequence RZ899076” value was “superior inhibitory activity”. Moreover, in the data set with target gene SOD1 [2] (left quadriceps muscle and diaphragm, tail vein 5 mg/kg), the “inhibitory action on the left quadriceps muscle and diaphragm” value is given as “certain inhibitory action”.

For the origin of these results see US20260132165A1, “MODIFIED NUCLEOSIDE ANALOGUE AND USE THEREOF, AND NUCLEOSIDE ANALOGUE-CONTAINING DOUBLE-STRANDED OLIGONUCLEOTIDE AND USE THEREOF” (RIGERNA THERAPEUTICS (BEIJING) CO., LTD., priority 2023, published 2026).
